Each compound was assayed against GLP-1 Receptor (Homo sapiens, UniProt P43220) (assay: GLP-1R agonist cAMP stimulation assay (HEK293/GLP1R/CRE-LUC cells, HTRF cAMP dynamic 2 kit)). Conditions: HEK293/CRE-Luc cell line stably expressing the GLP-1 Receptor; 30 min incubation at 37° C.
Format: cell-based
Protocol: Activation of GLP-1 receptor is known to stimulate cyclic AMP (cAMP) production in cells which indicates primary coupling to the Gas subunit of the G protein heterotrimeric complex.
To optimize functional activity directed toward Gas coupling, a HEK293/CRE-Luc cell line developed by HDB stably expressing the GLP-1 Receptor was used. 200× concentration of compound working solutions were prepared (Agilent Technologies Bravo) with 1/2 log serial dilution in 384-well Echo LDV plate (Labcyte, Cat #LP-0200). 50 nL/well 200× concentration of compound working solutions were moved to 384-well white low volume plate (Greiner, Cat #784075) using Labcyte ECHO550. 1×10^5 cells/mL HEK293/GLP1R/CRE-LUC (HD Biosciences) cell suspensions prepared with assay buffer [DPBS containing 0.5 mM IBMX (Sigma, Cat #15879) and 0.10% BSA (GENVIEW, Cat #FA016-100g)], 10 μL cell suspensions were added to each well of previous generated assay plate which already contains 50 nL compound at 200× concentration using ThermoFisher Multidrop Combi (1000 cells/well). Seal the plate and incubate at 37° C. with 5% CO2 for 30 min.
After incubation the cAMP assay signal was generated using cAMP dynamic 2 Kit (Cisbio). 5 μL cAMP-d2 working solution was added to each well, followed with 5 μL Anti-cAMP antibody-cryptate working solution added to each well using ThermoFisher Multidrop Combi. Incubate at room temperature for 1 hour protected from light. Read the fluorescence at 665 and 615 nm with Reader PerkinElmer EnVision.

Sequence of GLP-1 Receptor (P43220 24-463): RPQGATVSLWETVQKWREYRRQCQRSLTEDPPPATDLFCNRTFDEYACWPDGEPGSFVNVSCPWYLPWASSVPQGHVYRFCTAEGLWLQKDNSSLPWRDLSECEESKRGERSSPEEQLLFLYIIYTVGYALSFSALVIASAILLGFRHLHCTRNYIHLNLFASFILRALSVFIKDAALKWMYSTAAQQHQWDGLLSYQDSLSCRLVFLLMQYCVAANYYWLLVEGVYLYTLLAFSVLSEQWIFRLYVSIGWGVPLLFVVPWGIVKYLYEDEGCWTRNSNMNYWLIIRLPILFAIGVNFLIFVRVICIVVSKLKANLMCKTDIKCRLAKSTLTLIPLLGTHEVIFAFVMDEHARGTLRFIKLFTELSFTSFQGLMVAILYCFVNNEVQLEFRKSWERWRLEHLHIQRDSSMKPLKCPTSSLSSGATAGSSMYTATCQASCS

| Structure (SMILES) | EC50 [nM] |
| --- | --- |
| Fc1cc(Cl)ccc1COc1nc2c(cc1C(F)(F)F)CCN(Cc1nc3cc(-c4nnc(C(F)(F)F)[nH]4)cnc3n1C[C@@H]1CCO1)C2 [Compound 16, 2-[(4-chloro-2-fluorophenyl)methoxy]-7-[(3-{[(2S)-oxetan-2-yl]methyl}-6-[5-(trifluoromethyl)-4H-1,2,4-triazol-3-yl]-3H-imidazo[4,5-b]pyridin-2-yl)methyl]-3-(trifluoromethyl)-5,6,7,8-tetrahydro-1,7-naphthyridine] | < 1 |
| N#Cc1nnc(-c2cnc3c(c2)nc(CN2CCc4cc(C(F)(F)F)c(OCc5ccc(Cl)cc5F)nc4C2)n3C[C@@H]2CCO2)[nH]1 [Compound 17, 5-[2-({2-[(4-chloro-2-fluorophenyl)methoxy]-3-(trifluoromethyl)-5,6,7,8-tetrahydro-1,7-naphthyridin-7-yl}methyl)-3-{1[(2S)-oxetan-2-yl]methyl}-3H-imidazo[4,5-b]pyridin-6-yl]-4H-1,2,4-triazole-3-carbonitrile] | < 1 |
| N#Cc1nnc(-c2cc3nc(CN4CCc5cc(C(F)(F)F)c(OCc6ccc(Cl)cc6F)nc5C4)n(C[C@@H]4CCO4)c3cn2)[nH]1 [Compound 20, 5-[2-({2-[(4-chloro-2-fluorophenyl)methoxy]-3-(trifluoromethyl)-5,6,7,8-tetrahydro-1,7-naphthyridin-7-yl}methyl)-3-{[(2S)-oxetan-2-yl]methyl}-3H-imidazo[4,5-c]pyridin-6-yl]-4H-1,2,4-triazole-3-carbonitrile] | < 1 |
| O=C(NCC(F)(F)F)c1ccc2c(nc(CN3CCc4cc(C(F)(F)F)c(OCc5ccc(Cl)cc5F)nc4C3)n2C[C@@H]2CCO2)c1F [Compound 21, 2-({2-[(4-chloro-2-fluorophenyl)methoxy]-3-(trifluoromethyl)-5,6,7,8-tetrahydro-1,7-naphthyridin-7-yl}methyl)-4-fluoro-1-{[(2S)-oxetan-2-yl]methyl}-N-(2,2,2-trifluoroethyl)-1H-1,3-benzodiazole-5-carboxamide] | 1 to 300 |
| CNC(=O)c1ccc2c(nc(CN3CCc4cc(C(F)(F)F)c(OCc5ccc(Cl)cc5F)nc4C3)n2C[C@@H]2CCO2)c1F [Compound 22, 2-({2-[(4-chloro-2-fluorophenyl)methoxy]-3-(trifluoromethyl)-5,6,7,8-tetrahydro-1,7-naphthyridin-7-yl}methyl)-4-fluoro-N-methyl-1-{[(2S)-oxetan-2-yl]methyl}-1H-1,3-benzodiazole-5-carboxamide] | 1 to 300 |
| O=C(NCC(F)(F)F)c1cc2nc(CN3CCc4cc(C(F)(F)F)c(OCc5ccc(Cl)cc5F)nc4C3)n(C[C@@H]3CCO3)c2cn1 [Compound 23, 2-({2-[(4-chloro-2-fluorophenyl)methoxy]-3-(trifluoromethyl)-5,6,7,8-tetrahydro-1,7-naphthyridin-7-yl}methyl)-3-{[(2S)-oxetan-2-yl]methyl}-N-(2,2,2-trifluoroethyl)-3H-imidazo[4,5-c]pyridine-6-carboxamide] | 1 to 300 |
| CNC(=O)c1cc2nc(CN3CCc4cc(C(F)(F)F)c(OCc5ccc(Cl)cc5F)nc4C3)n(C[C@@H]3CCO3)c2cn1 [Compound 24, 2-({2-[(4-chloro-2-fluorophenyl)methoxy]-3-(trifluoromethyl)-5,6,7,8-tetrahydro-1,7-naphthyridin-7-yl}methyl)-N-methyl-3-{[(2S)-oxetan-2-yl]methyl}-3H-imidazo[4,5-c]pyridine-6-carboxamide] | 1 to 300 |
| O=C(O)c1ccc2c(n1)nc(CN1CCc3cc(C(F)(F)F)c(OCc4ccc(Cl)cc4F)nc3C1)n2C[C@@H]1CCO1 [Compound 25, 2-({2-[(4-chloro-2-fluorophenyl)methoxy]-3-(trifluoromethyl)-5,6,7,8-tetrahydro-1,7-naphthyridin-7-yl}methyl)-1-{[(2S)-oxetan-2-yl]methyl}-1H-imidazo[4,5-b]pyridine-5-carboxylic acid] | 1 to 300 |
| O=C(O)c1cc2nc(CN3CCc4cc(C(F)(F)F)c(OCc5ccc(Cl)cc5F)nc4C3)n(C[C@@H]3CCO3)c2cn1 [Compound 26, 2-({2-[(4-chloro-2-fluorophenyl)methoxy]-3-(trifluoromethyl)-5,6,7,8-tetrahydro-1,7-naphthyridin-7-yl}methyl)-3-{[(2S)-oxetan-2-yl]methyl}-3H-imidazo[4,5-c]pyridine-6-carboxylic acid] | < 1 |
| O=C(O)c1ccc2c(nc(CN3CCc4cc(C(F)(F)F)c(OCc5ccc(Cl)cc5F)nc4C3)n2C[C@@H]2CCO2)c1F [Compound 27, 2-({2-[(4-chloro-2-fluorophenyl)methoxy]-3-(trifluoromethyl)-5,6,7,8-tetrahydro-1,7-naphthyridin-7-yl}methyl)-4-fluoro-1-{[(2S)-oxetan-2-yl]methyl}-1H-1,3-benzodiazole-5-carboxylic acid] | 1 to 300 |
| O=C(O)c1ccc2c(c1)nc(CN1CCc3cc(C(F)(F)F)c(OCc4ccc(Cl)cc4F)nc3C1)n2C[C@@H]1CCO1 [Compound 28, 2-({2-[(4-chloro-2-fluorophenyl)methoxy]-3-(trifluoromethyl)-5,6,7,8-tetrahydro-1,7-naphthyridin-7-yl}methyl)-1-{[(2S)-oxetan-2-yl]methyl}-1H-1,3-benzodiazole-5-carboxylic acid] | < 1 |
| O=c1[nH]c(-c2cnc3c(c2)nc(CN2CCc4cc(C(F)(F)F)c(OCc5ccc(Cl)cc5F)nc4C2)n3C[C@@H]2CCO2)no1 [Compound 29, 3-[2-({2-[(4-chloro-2-fluorophenyl)methoxy]-3-(trifluoromethyl)-5,6,7,8-tetrahydro-1,7-naphthyridin-7-yl}methyl)-3-{[(2S)-oxetan-2-yl]methyl}-3H-imidazo[4,5-b]pyridin-6-yl]-4,5-dihydro-1,2,4-oxadiazol-5-one] | < 1 |
| O=c1[nH]c(-c2cnc3c(c2)nc(CN2CCc4cc(C(F)(F)F)c(OCc5c(F)cc(Cl)cc5F)nc4C2)n3C[C@@H]2CCO2)no1 [Compound 30, 3-[2-({2-[(4-chloro-2,6-difluorophenyl)methoxy]-3-(trifluoromethyl)-5,6,7,8-tetrahydro-1,7-naphthyridin-7-yl}methyl)-3-{[(2S)-oxetan-2-yl]methyl}-3H-imidazo[4,5-b]pyridin-6-yl]-4,5-dihydro-1,2,4-oxadiazol-5-one] | < 1 |
| O=c1[nH]c(-c2cc3nc(CN4CCc5cc(C(F)(F)F)c(OCc6ccc(Cl)cc6)nc5C4)n(C[C@@H]4CCO4)c3cn2)no1 [Compound 31, 3-[2-({2-[(4-chlorophenyl)methoxy]-3-(trifluoromethyl)-5,6,7,8-tetrahydro-1,7-naphthyridin-7-yl}methyl)-3-{[(2S)-oxetan-2-yl]methyl}-3H-imidazo[4,5-c]pyridin-6-yl]-4,5-dihydro-1,2,4-oxadiazol-5-one] | < 1 |
| O=c1[nH]c(-c2cc3nc(CN4CCc5cc(C(F)(F)F)c(OCc6c(F)cc(Cl)cc6F)nc5C4)n(C[C@@H]4CCO4)c3cn2)no1 [Compound 32, 3-[2-({2-[(4-chloro-2,6-difluorophenyl)methoxy]-3-(trifluoromethyl)-5,6,7,8-tetrahydro-1,7-naphthyridin-7-yl}methyl)-3-{1[(2S)-oxetan-2-yl]methyl}-3H-imidazo[4,5-c]pyridin-6-yl]-4,5-dihydro-1,2,4-oxadiazol-5-one] | < 1 |
| Cc1ccc(COc2nc3c(cc2C(F)(F)F)CCN(Cc2nc4cc(-c5noc(=O)[nH]5)ncc4n2C[C@@H]2CCO2)C3)c(Cl)c1 [Compound 33, 3-[2-({2-[(2-chloro-4-methylphenyl)methoxy]-3-(trifluoromethyl)-5,6,7,8-tetrahydro-1,7-naphthyridin-7-yl}methyl)-3-{1[(2S)-oxetan-2-yl]methyl}-3H-imidazo[4,5-c]pyridin-6-yl]-4,5-dihydro-1,2,4-oxadiazol-5-one] | < 1 |
| Cc1cc2c(nc1OCc1c(F)cc(Cl)cc1F)CN(Cc1nc3cc(-c4noc(=O)[nH]4)ncc3n1C[C@@H]1CCO1)CC2 [Compound 34, 3-[2-({2-[(4-chloro-2,6-difluorophenyl)methoxy]-3-methyl-5,6,7,8-tetrahydro-1,7-naphthyridin-7-yl}methyl)-3-{[(2S)-oxetan-2-yl]methyl}-3H-imidazo[4,5-c]pyridin-6-yl]-4,5-dihydro-1,2,4-oxadiazol-5-one] | < 1 |
| Cc1cc2c(nc1NCc1c(F)cc(Cl)cc1F)CN(Cc1nc3cc(-c4noc(=O)[nH]4)ncc3n1C[C@@H]1CCO1)CC2 [Compound 35, 3-{2-[(2-{[(4-chloro-2,6-difluorophenyl)methyl]amino}-3-methyl-5,6,7,8-tetrahydro-1,7-naphthyridin-7-yl)methyl]-3-{[(2S)-oxetan-2-yl]methyl}-3H-imidazo[4,5-c]pyridin-6-yl}-4,5-dihydro-1,2,4-oxadiazol-5-one] | < 1 |
| O=c1[nH]c(-c2ccc3c(c2)nc(CN2CCc4cc(C(F)(F)F)c(OCc5ccc(Cl)cc5F)nc4C2)n3C[C@@H]2CCO2)no1 [Compound 36, 3-[2-({2-[(4-chloro-2-fluorophenyl)methoxy]-3-(trifluoromethyl)-5,6,7,8-tetrahydro-1,7-naphthyridin-7-yl}methyl)-1-{1[(2S)-oxetan-2-yl]methyl}-1H-1,3-benzodiazol-5-yl]-4,5-dihydro-1,2,4-oxadiazol-5-one] | < 1 |

Source: patent US20250206757A1 (GASHERBRUM BIO, INC., priority 2022, published 2025)
